# Measured values from PubChem BioAssay AID743305 (Broad Institute, 2014).
# Where “and” joins values, the source holds several entries; their conditions need not be identical. Equal entries are not always repeated. Calls of active or inactive are those of the source. No rule for the calls is given here.
# System: Cryptococcus neoformans cell lysis, plate reader
# Experiment: fungal lysis by compounds in C. neoformans – plate reader, dry powder, set 2, dose response (AID 743305)
# Details: not given
row,SMILES,AC50
1,NCC(=O)Nc1ccc(-n2nc(C(F)(F)F)cc2-c2ccc3c(ccc4ccccc43)c2)cc1,10.7 µM
2,Cc1cc2ncn(CCOc3ccccc3)c2cc1C,14.9 µM
3,Cc1cc2ncn(CCOc3ccccc3C)c2cc1C,8.4 µM
4,CC(C)Oc1ccc(OCCn2c(=S)[nH]c3ccccc32)cc1,12.1 µM
5,CCCc1nc2ccccc2n1CCOc1ccccc1,35.7 µM
6,CC(C)(C)c1ccc(OCCn2cnc3ccccc32)c(Cl)c1,10.1 µM
7,Cc1ccc(OCCn2cnc3cc(C)c(C)cc32)cc1,5.54 µM
8,Fc1ccc(OCCn2c(=S)[nH]c3ccccc32)cc1,36.6 µM
9,CC(C)c1ccccc1NCCn1c(=S)[nH]c2ccccc21,> 70 µM (inactive)
10,CC(C)c1ccccc1OCCn1c(=S)[nH]c2ccccc21,4.7 µM
11,COCc1nc2ccccc2n1CCOc1ccc(C(C)(C)C)cc1,28.6 µM
12,Cc1ccc(OCCn2cnc3ccccc32)c(C(C)C)c1,32.8 µM
13,Cc1ccc(C(C)C)c(OCCn2c(N)nc3ccccc32)c1,21.9 µM
14,c1ccc(COc2ccc(OCCn3cnc4ccccc43)cc2)cc1,24.4 µM
15,FC(F)(F)c1cccc(OCCn2cnc3ccccc32)c1,29.7 µM
16,CC(C)Oc1cccc(OCCn2cnc3ccccc32)c1,13.3 µM
17,CSc1nc2ccccc2n1CCOc1ccccc1,29.5 µM
18,S=c1[nH]c2cccc(Cl)c2n1CCOc1ccccc1,2.95 µM
19,Clc1ccc(OCCn2cnc3ccccc32)cc1,29 µM
20,CSc1nc2ccccc2n1CCOc1ccc(C)cc1,17.7 µM
21,Cc1cccc(OCCn2c(=S)[nH]c3ccccc32)c1,8.47 µM

row,SMILES,AC50
1,CCCCc1nc2ccccc2n1CCOc1ccccc1,24.3 µM
2,Cc1cccc(OCCn2c(=S)[nH]c3c(F)cccc32)c1,8.18 µM and 7.2 µM
3,Cc1ccc(C(C)C)c(OCCn2c(CO)nc3ccccc32)c1,> 70 µM (inactive)
4,Fc1cccc2c1[nH]c(=S)n2CCOc1ccccc1,13.9 µM
5,S=c1[nH]c2cc(Cl)ccc2n1CCOc1ccccc1,36 µM
6,Clc1ccc(OCCn2cnc3ccccc32)c(Cl)c1,11.8 µM
7,Cc1ccc(C(C)C)c(OCCn2c(NC#N)nc3ccccc32)c1,> 70 µM (inactive)
8,Cc1ccc(OCCn2cnc3ccccc32)c(C)c1,14.6 µM
9,Fc1ccc2c(c1)[nH]c(=S)n2CCOc1ccccc1,12.4 µM and 15.5 µM
10,Cc1ccc(C(C)C)c(OCCn2c(=S)[nH]c3ccccc32)c1,3.96 µM
11,c1ccc2c(c1)ncn2CCOc1ccc2c(c1)CCC2,3.3 µM
12,Cc1ccc2c(c1)[nH]c(=S)n2CCOc1ccccc1,7.79 µM
13,CCSc1nc2ccccc2n1CCOc1ccccc1,35 µM
14,Cc1ccc(C(C)C)c(OCCn2c(=O)[nH]c3ccccc32)c1,> 70 µM (inactive)
15,Cc1cccc(OCCn2c(=S)[nH]c3ccc(C(F)(F)F)cc32)c1,> 70 µM (inactive)
16,CC(C)(C)c1ccc(OCCn2cnc3ccccc32)cc1,11 µM
17,Cc1cc2ncn(CCOc3ccc4c(c3)CCC4)c2cc1C,3.63 µM
18,Cc1cccc(OCCn2c(=S)[nH]c3cc(F)ccc32)c1,6.33 µM and 6 µM
19,Cc1cccc(OCCn2cnc3ccccc32)c1,34.1 µM
20,CC(C)Oc1ccc(OCCn2cnc3ccccc32)cc1,24.3 µM

# System: not listed separately
# Experiment: as above
# Details: Cryptococcus neoformans cell lysis, plate reader; at 35 µM (top of the series)
row,SMILES,"activity change, negative = lysis"
1,OCc1nc2ccccc2n1CCOc1ccccc1,-11.6% (inactive)
2,COc1ccccc1OCCn1c(=S)[nH]c2ccccc21,-5.77% (inactive)
3,c1ccc(-c2ccc(OCCn3cnc4ccccc43)cc2)cc1,-7.29% (inactive)
4,CCc1nc2ccccc2n1CCOc1ccccc1,-12.5% (inactive)
5,O=S(=O)(c1ccc(OCCn2cnc3ccccc32)cc1)N1CCOCC1,-16.9% (inactive)
6,CS(=O)(=O)c1ccc(OCCn2cnc3ccccc32)cc1,-6.3% (inactive)
7,COc1ccc(OCCn2cnc3ccccc32)cc1,-13.3% (inactive)
